# What was measured:
# [1] = molecular target: Protein cereblon/Histone acetyltransferase p300 (Homo sapiens, UniProt Q09472+Q96SW2); test: PROTAC activity at p300/CRBN in human U2OS cells assessed as induction of p300 degradation incubated for 24 hrs by Nan-glo HiBiT lytic assay; format: cell-based
# [2] = molecular target: Protein cereblon/CREB-binding protein (Homo sapiens, UniProt Q92793+Q96SW2); test: PROTAC activity at CBP/CRBN in human U2OS cells assessed as induction of CBP degradation incubated for 24 hrs by Nan-glo HiBiT lytic assay; format: cell-based
# VCaP = test: Antiproliferative activity against human VCaP cells assessed as cell growth inhibition incubated for 4 days by celtiter-glo luminescent assay; conditions: 96 h
# LNCaP = test: Antiproliferative activity against human LNCaP cells assessed as cell growth inhibition incubated for 4 days by celtiter-glo luminescent assay; conditions: 96 h
# [3] = molecular target: Histone acetyltransferase p300 (Homo sapiens, UniProt Q09472); test: Binding affinity to p300 (unknown origin) assessed as dissociation constant by ITC analysis
# Histone acetyltransferase p300, sequence (Q09472 whole entry): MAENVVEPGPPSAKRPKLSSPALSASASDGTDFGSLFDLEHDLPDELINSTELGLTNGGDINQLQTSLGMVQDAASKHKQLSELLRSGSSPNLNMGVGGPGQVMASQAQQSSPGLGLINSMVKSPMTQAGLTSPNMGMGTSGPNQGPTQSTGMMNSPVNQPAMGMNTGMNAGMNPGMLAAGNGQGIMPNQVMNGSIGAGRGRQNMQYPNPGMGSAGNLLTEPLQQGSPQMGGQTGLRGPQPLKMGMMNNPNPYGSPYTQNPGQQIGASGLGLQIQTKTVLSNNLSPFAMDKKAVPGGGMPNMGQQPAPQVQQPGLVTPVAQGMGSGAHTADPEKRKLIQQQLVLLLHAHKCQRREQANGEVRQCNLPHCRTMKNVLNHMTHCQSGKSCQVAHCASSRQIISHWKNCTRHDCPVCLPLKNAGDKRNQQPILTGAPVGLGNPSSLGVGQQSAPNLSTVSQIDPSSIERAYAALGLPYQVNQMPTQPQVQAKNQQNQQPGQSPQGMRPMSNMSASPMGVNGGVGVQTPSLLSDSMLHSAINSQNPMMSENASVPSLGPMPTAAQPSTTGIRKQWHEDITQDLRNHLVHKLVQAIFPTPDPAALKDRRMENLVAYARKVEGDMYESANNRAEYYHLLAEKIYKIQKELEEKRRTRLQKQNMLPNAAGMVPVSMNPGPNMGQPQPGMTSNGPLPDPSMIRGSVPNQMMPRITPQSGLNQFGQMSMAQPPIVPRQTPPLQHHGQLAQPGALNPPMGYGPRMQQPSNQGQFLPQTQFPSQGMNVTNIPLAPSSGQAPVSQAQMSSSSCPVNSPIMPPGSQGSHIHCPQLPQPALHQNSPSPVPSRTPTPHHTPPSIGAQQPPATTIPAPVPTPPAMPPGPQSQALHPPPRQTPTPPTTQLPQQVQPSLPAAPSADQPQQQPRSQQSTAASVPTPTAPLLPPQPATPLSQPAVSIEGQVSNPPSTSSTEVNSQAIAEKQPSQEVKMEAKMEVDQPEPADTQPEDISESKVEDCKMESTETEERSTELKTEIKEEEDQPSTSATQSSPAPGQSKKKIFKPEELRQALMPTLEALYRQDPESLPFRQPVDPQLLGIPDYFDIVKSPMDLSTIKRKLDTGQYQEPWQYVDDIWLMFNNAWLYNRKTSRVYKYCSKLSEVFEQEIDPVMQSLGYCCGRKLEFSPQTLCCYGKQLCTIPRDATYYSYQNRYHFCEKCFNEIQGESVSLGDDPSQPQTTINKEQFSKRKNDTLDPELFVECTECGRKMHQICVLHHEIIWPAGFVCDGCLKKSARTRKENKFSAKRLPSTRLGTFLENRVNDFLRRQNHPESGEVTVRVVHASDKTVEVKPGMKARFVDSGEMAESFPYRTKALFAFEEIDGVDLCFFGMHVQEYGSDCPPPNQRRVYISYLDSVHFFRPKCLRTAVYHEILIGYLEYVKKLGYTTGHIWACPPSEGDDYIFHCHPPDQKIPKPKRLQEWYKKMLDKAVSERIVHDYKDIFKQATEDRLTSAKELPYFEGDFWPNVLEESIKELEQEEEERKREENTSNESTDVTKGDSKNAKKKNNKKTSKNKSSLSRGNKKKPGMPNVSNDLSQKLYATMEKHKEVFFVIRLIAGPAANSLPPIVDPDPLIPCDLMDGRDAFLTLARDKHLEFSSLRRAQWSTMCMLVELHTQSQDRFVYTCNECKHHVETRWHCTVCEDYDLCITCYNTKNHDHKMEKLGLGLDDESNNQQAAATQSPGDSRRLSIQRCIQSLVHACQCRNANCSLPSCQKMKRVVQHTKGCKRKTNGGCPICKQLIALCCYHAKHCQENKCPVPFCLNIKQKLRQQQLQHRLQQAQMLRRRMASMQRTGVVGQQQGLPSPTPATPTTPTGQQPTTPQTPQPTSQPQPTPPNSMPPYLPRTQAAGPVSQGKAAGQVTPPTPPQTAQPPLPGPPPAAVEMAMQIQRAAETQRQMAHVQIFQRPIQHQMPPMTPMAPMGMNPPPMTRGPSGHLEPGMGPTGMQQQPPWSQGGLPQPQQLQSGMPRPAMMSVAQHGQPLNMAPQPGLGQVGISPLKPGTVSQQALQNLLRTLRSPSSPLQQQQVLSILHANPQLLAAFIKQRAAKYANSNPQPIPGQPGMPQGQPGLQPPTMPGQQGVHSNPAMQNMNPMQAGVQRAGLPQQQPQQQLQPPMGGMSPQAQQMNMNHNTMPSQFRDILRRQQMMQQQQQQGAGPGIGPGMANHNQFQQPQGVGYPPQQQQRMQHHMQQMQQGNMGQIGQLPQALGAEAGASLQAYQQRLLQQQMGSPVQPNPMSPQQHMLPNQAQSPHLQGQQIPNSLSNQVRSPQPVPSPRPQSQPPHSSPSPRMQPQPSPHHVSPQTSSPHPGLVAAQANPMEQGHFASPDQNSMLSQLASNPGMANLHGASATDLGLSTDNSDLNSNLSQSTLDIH
# [4] = molecular target: Bromodomain-containing protein 4 (Homo sapiens, UniProt O60885); test: Binding affinity to BRD4 (unknown origin) assessed as dissociation constant by ITC analysis
# CWR22R = test: Antiproliferative activity against human 22Rv1 cells assessed as cell growth inhibition incubated for 4 days by celtiter-glo luminescent assay; conditions: 22Rv1, 96 h
# CREB-binding protein = CREB-binding protein (Homo sapiens, UniProt Q92793); test: Binding affinity to CBP (unknown origin) assessed as dissociation constant by ITC analysis
# [5] = Drug concentration in rat plasma at 3 mg/kg, po measured at 24 hrs by LC-MS/MS analysis; format: ADME, organism-based
# [6] = Metabolic stability in human liver microsome assessed as half life measured upto 60 mins in presence of NADPH by LC-MS/MS analysis; format: ADME; conditions: liver microsomes
# [7] = Drug concentration in rat plasma at 3 mg/kg, po measured at 15 mins by LC-MS/MS analysis; format: ADME, organism-based
# [8] = Metabolic stability in mouse liver microsome assessed as half life measured upto 60 mins in presence of NADPH by LC-MS/MS analysis; format: ADME; conditions: liver microsomes
# [9] = Drug concentration in rat plasma at 3 mg/kg, po measured at 5 mins by LC-MS/MS analysis; format: ADME, organism-based
# [10] = Volume of distribution at steady state in Sprague-Dawley rat at 1 mg/kg, iv measured upto 24 hrs by LC-MS/MS analysis; format: ADME, organism-based; conditions: in vivo
# [11] = AUC (0 to t) in Sprague-Dawley rat at 1 mg/kg, iv measured upto 24 hrs by LC-MS/MS analysis; format: ADME, organism-based; conditions: in vivo
# [12] = Metabolic stability in rat liver microsome assessed as half life measured upto 60 mins in presence of NADPH by LC-MS/MS analysis; format: ADME; conditions: liver microsomes
# [13] = Half life in Sprague-Dawley rat at 1 mg/kg, iv measured upto 24 hrs by LC-MS/MS analysis; format: ADME, organism-based; conditions: in vivo
# [14] = Drug concentration in rat plasma at 3 mg/kg, po measured at 1 hr by LC-MS/MS analysis; format: ADME, organism-based
# [15] = Drug concentration in rat plasma at 3 mg/kg, po measured at 2 hrs by LC-MS/MS analysis; format: ADME, organism-based
# [16] = Drug concentration in rat plasma at 3 mg/kg, po measured at 6 hrs by LC-MS/MS analysis; format: ADME, organism-based
# [17] = Drug concentration in rat plasma at 3 mg/kg, po measured at 4 hrs by LC-MS/MS analysis; format: ADME, organism-based
# [18] = Drug concentration in rat plasma at 3 mg/kg, po measured at 30 mins by LC-MS/MS analysis; format: ADME, organism-based
# Protein cereblon/Histone acetyltransferase p300, sequence (Q09472 whole entry): as above
# Protein cereblon/Histone acetyltransferase p300, sequence (Q96SW2 whole entry): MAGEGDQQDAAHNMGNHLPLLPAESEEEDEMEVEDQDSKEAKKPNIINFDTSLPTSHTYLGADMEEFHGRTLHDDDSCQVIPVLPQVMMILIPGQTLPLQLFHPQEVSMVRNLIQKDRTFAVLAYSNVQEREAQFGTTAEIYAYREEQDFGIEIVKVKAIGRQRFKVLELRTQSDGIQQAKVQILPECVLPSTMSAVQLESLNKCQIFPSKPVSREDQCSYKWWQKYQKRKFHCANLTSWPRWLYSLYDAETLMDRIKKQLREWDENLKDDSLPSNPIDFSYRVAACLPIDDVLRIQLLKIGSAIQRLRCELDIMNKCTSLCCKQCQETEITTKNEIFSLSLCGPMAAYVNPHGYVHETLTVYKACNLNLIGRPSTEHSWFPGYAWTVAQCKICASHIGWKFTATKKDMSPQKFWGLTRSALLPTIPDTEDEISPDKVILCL
compound,measurement,setting,value
CCc1cc2c(cc1C(F)F)N(c1nn(C3CCN(C(=O)CN4Cc5cc6c(cc5C4)C(=O)N(C4CCC(=O)NC4=O)C6=O)CC3)c3c1CN(C(C)=O)CC3)CCC2 (configuration not stated),DC50,[1],0.018 µM
same,DC50,[2],0.089 µM
CC(=O)N1CCc2c(c(N3CCCc4cc(C(C)C)c(C(F)F)cc43)nn2C2CCN(C(=O)CN3Cc4cc5c(cc4C3)C(=O)N(C3CCC(=O)NC3=O)C5=O)CC2)C1 (configuration not stated),DC50,[1],0.04 µM
same,DC50,[2],0.057 µM
CC(=O)N1CCc2c(c(N3CCCc4cc(-c5ccc(F)cc5)c(C(F)F)cc43)nn2C2CCN(C(=O)CN3Cc4cc5c(cc4C3)C(=O)N(C3CCC(=O)NC3=O)C5=O)CC2)C1 (configuration not stated),DC50,[1],0.041 µM
same,DC50,[2],0.036 µM
N#Cc1ccc(O[C@H]2CC[C@H](NC(=O)c3ccc(N4CCC(CN5CCN(c6cc7c(cc6F)C(=O)N(C6CCC(=O)NC6=O)C7=O)CC5)CC4)nn3)CC2)cc1Cl (some centres not stated) [BAVDEGALUTAMIDE],IC50,VCaP,0.125 µM
CC(=O)N1CCc2c(c(N3CCCc4cc(-c5cnn(C)c5)c(C(F)F)cc43)nn2C2CCOCC2)C1,IC50,LNCaP,> 1 µM
same,Kd,[3],0.0013 µM
same,Kd,[4],0.2 µM
same,IC50,CWR22R,> 1 µM
same,Kd,CREB-binding protein,0.0011 µM
same,IC50,VCaP,> 1 µM
CC(=O)N1CCc2c(c(N3CCCc4cc(-c5cnn(C)c5)c(C(F)F)cc43)nn2C2CCN(C(=O)CCCCCN3Cc4cc5c(cc4C3)C(=O)N(C3CCC(=O)NC3=O)C5=O)CC2)C1 (configuration not stated),DC50,[1],0.108 µM
same,DC50,[2],0.362 µM
CC(=O)N1CCc2c(c(N3CCCc4cc(-c5cnn(C)c5)c(C(F)F)cc43)nn2C2CCN(C(=O)N3Cc4cc5c(cc4C3)C(=O)N(C3CCC(=O)NC3=O)C5=O)CC2)C1 (configuration not stated),DC50,[1],> 1 µM
same,DC50,[2],> 1 µM
CC(=O)N1CCc2c(c(N3CCCc4cc(-c5cnn(C)c5)c(C(F)F)cc43)nn2C2CCN(CC(=O)N3Cc4cc5c(cc4C3)C(=O)N(C3CCC(=O)NC3=O)C5=O)CC2)C1 (configuration not stated),DC50,[1],> 1 µM
same,DC50,[2],> 1 µM
CC(=O)N1CCc2c(c(N3CCCc4cc(-c5cnn(C)c5)c(C(F)F)cc43)nn2C2CCN(C(=O)CCCCN3Cc4cc5c(cc4C3)C(=O)N(C3CCC(=O)NC3=O)C5=O)CC2)C1 (configuration not stated),DC50,[1],0.046 µM
same,DC50,[2],0.168 µM
CNC(=O)N1CCc2c(c(N3CCCc4cc(-c5cnn(C)c5)c(C(F)F)cc43)nn2C2CCOCC2)C1,Kd,[3],0.0012 µM
same,Kd,[4],0.0046 µM
same,Kd,CREB-binding protein,0.0009 µM
CC(=O)N1CCc2c(c(N3CCCc4cc(-c5cnn(C)c5)c(C(F)F)cc43)nn2C2CCN(C(=O)CN3Cc4cc5c(cc4C3)C(=O)N(C3CCC(=O)NC3=O)C5=O)CC2)C1 (configuration not stated),concentration at 24 h,[5],4.6 ng/mL
same,half-life,[6],0.163 h
same,concentration at 0.25 h,[7],1.9 ng/mL
same,half-life,[8],0.317 h
same,concentration at 5 min,[9],3.7 ng/mL
same,Vdss,[10],6.3 L/kg
same,AUC(0-t) at 24 h,[11],166 ng·h/mL
same,half-life,[12],> 1 h
same,t1/2,[13],1.3 h
CNC(=O)c1ccc(N2C(=S)N(c3ccc(C#N)c(C(F)(F)F)c3)C(=O)C2(C)C)cc1F [ENZALUTAMIDE],IC50,CWR22R,> 1 µM
same,IC50,VCaP,> 1 µM
CC(=O)N1CCc2c(c(N3CCCc4cc(-c5cnn(C)c5)c(C(F)F)cc43)nn2C2CCN(C(=O)CCN3Cc4cc5c(cc4C3)C(=O)N(C3CCC(=O)NC3=O)C5=O)CC2)C1 (configuration not stated),DC50,[1],> 1 µM
same,DC50,[2],> 1 µM
CC(=O)N1CCc2c(c(N3CCCc4cc(C5CC5)c(C(F)F)cc43)nn2C2CCN(C(=O)CN3Cc4cc5c(cc4C3)C(=O)N(C3CCC(=O)NC3=O)C5=O)CC2)C1 (configuration not stated),DC50,[1],0.029 µM
same,DC50,[2],0.052 µM
CC(=O)N1CCc2c(c(N3CCCc4cc(-c5cccs5)c(C(F)F)cc43)nn2C2CCN(C(=O)CN3Cc4cc5c(cc4C3)C(=O)N(C3CCC(=O)NC3=O)C5=O)CC2)C1 (configuration not stated),DC50,[1],0.033 µM
same,DC50,[2],0.024 µM
CC(=O)N1CCc2c(c(N3CCCc4ccc(C(F)F)cc43)nn2C2CCN(C(=O)CN3Cc4cc5c(cc4C3)C(=O)N(C3CCC(=O)NC3=O)C5=O)CC2)C1 (configuration not stated),DC50,[1],0.204 µM
same,concentration at 1 h,[14],0.3 ng/mL
same,concentration at 2 h,[15],0.4 ng/mL
same,concentration at 6 h,[16],0.9 ng/mL
same,DC50,[2],0.519 µM
same,half-life,[6],> 1 h
same,concentration at 0.25 h,[7],0.5 ng/mL
same,concentration at 4 h,[17],0.7 ng/mL
same,half-life,[8],> 1 h
same,concentration at 5 min,[9],1 ng/mL
same,concentration at 0.5 h,[18],0.4 ng/mL
same,Vdss,[10],1.7 L/kg
same,AUC(0-t) at 24 h,[11],88.7 ng·h/mL
same,half-life,[12],> 1 h
same,t1/2,[13],1.1 h
CC(=O)N1CCc2c(c(N3CCCc4cc(-c5cnn(C)c5)c(C(F)F)cc43)nn2C2CCN(C(=O)CCCN3Cc4cc5c(cc4C3)C(=O)N(C3CCC(=O)NC3=O)C5=O)CC2)C1 (configuration not stated),DC50,[1],0.105 µM
same,DC50,[2],0.368 µM
CC(=O)N1CCc2c(c(N3CCCc4cc(C5CCCCC5)c(C(F)F)cc43)nn2C2CCN(C(=O)CN3Cc4cc5c(cc4C3)C(=O)N(C3CCC(=O)NC3=O)C5=O)CC2)C1 (configuration not stated),DC50,[1],0.039 µM
same,DC50,[2],0.037 µM
CC(=O)N1CCc2c(c(N3CCCc4cc(Br)c(C(F)F)cc43)nn2C2CCN(C(=O)CN3Cc4cc5c(cc4C3)C(=O)N(C3CCC(=O)NC3=O)C5=O)CC2)C1 (configuration not stated),DC50,[1],0.017 µM
same,DC50,[2],0.064 µM
CC(=O)N1CCc2c(c(N3CCCc4cc(C)c(C(F)F)cc43)nn2C2CCN(C(=O)CN3Cc4cc5c(cc4C3)C(=O)N(C3CCC(=O)NC3=O)C5=O)CC2)C1 (configuration not stated),DC50,[1],0.0096 µM
same,DC50,[2],0.055 µM
CO[C@H]1CC[C@H](n2c([C@@H]3CCCC(=O)N3c3ccc(F)c(F)c3)nc3cc(-c4c(C)noc4C)ccc32)CC1 [INOBRODIB],IC50,VCaP,0.195 µM
CC(=O)N1CCc2c(c(N3CCCc4cc(-c5ccccc5)c(C(F)F)cc43)nn2C2CCN(C(=O)CN3Cc4cc5c(cc4C3)C(=O)N(C3CCC(=O)NC3=O)C5=O)CC2)C1 (configuration not stated),DC50,[1],0.023 µM
same,DC50,[2],0.031 µM

# — ChEMBL document CHEMBL5543112, “Discovery of CBPD-268 as an Exceptionally Potent and Orally Efficacious CBP/p300 PROTAC Degrader Capable of Achieving Tumor Regression” (J Med Chem, 2024)
